Laboratory results published in ChEMBL document CHEMBL6109155, “Discovery of Phenylacylpiperidine as Novel sEH Inhibitors through Scaffold Hopping of Natural Stilbene” (J Med Chem, 2025).
Calls of active or inactive are those of the source. The calls are words filed in the database; no cut-off is given here.

Columns and labels:
[1] = Cmax in brain of C57BL/6J mouse at 20 mg/kg, po measured for 24 hrs; format: ADME, organism-based
[2] = AUC (0 to 24 hrs) in brain of C57BL/6J mouse at 20 mg/kg, po measured for 24 hrs; format: ADME, organism-based
Rattus norvegicus [3] = assay: Anti-inflammatory activity in Sprague-Dawley rat model of CFA-induced rheumatoid arthritis assessed as increase in ratio of plasma 8,9-EET to DHET levels at 10 mg/kg, po administered daily measured after 19 days relative to control; format: functional; conditions: time 19 day
Mus musculus [4] = assay: Anti-inflammatory activity in BALB/c mouse model of carrageenan-induced paw edema assessed as inhibition of paw swelling at 20 mg/kg, po measured for 0.5 hrs relative to control; format: functional; conditions: Mus musculus, BALB/c
Mus musculus [5] = assay: Anti-inflammatory activity in BALB/c mouse model of carrageenan-induced paw edema assessed as inhibition of paw swelling at 10 mg/kg, po measured after 6 hrs relative to control; format: functional
Mus musculus [6] = assay: (§1) Anti-inflammatory activity in CD-1 mouse model of cerulein-induced acute pancreatitis assessed as decrease in inflammatory response in pancreas at 10 mg/kg, ip drug administered at 30 mins and 2.5 hrs post-first cerulein injection and measured after 6 hrs post-first cerulein injection by H and E staining based analysis; format: functional, organism-based; conditions: time 3.5-5.5 hrs
[7] = Oral bioavailability in Sprague-Dawley rat at 20 mg/kg measured for 24 hrs; format: ADME, organism-based; conditions: in vivo
Mus musculus [8] = assay: Anti-inflammatory activity in BALB/c mouse model of carrageenan-induced paw edema assessed as increase in ratio of 8,9-EET to DHET plasma levels at 10 mg/kg, po measured after 6 hrs relative to control; format: functional
Mus musculus [9] = assay: Anti-inflammatory activity in CD-1 mouse model of cerulein-induced acute pancreatitis assessed as decrease in plasma IL-6 level at 10 mg/kg, ip drug administered at 30 mins and 2.5 hrs post-first cerulein injection and measured after 6 hrs post-first cerulein injection; format: functional, organism-based; conditions: time 3.5-5.5 hrs
Mus musculus [10] = assay: as §1, with “pancreatic edema” for “inflammatory response in pancreas”; format: functional, organism-based; conditions: time 3.5-5.5 hrs
Mus musculus [11] = assay: Anti-inflammatory activity in BALB/c mouse model of carrageenan-induced paw edema assessed as inhibition of paw swelling at 20 mg/kg, po measured after 6 hrs relative to control; format: functional
Rattus norvegicus [12] = assay: Anti-inflammatory activity in Sprague-Dawley rat model of CFA-induced rheumatoid arthritis assessed as decrease in arthritis index at 10 mg/kg, po administered daily measured for 7 to 19 days; format: functional, organism-based; conditions: time 7-19 day
Rattus norvegicus [13] = assay: Anti-inflammatory activity in Sprague-Dawley rat model of CFA-induced rheumatoid arthritis assessed as […] in connective tissue proliferation in synovial tissue at 10 mg/kg, po administered daily measured after 19 days by H and E staining based analysis; format: functional, organism-based; conditions: time 19.0 day
Rattus norvegicus [14] = assay: Anti-inflammatory activity in Sprague-Dawley rat model of CFA-induced rheumatoid arthritis assessed as decrease in plasma IL-6 level at 10 mg/kg, po administered daily measured after 19 days relative to control; format: functional; set-up: scale not given: the % may be the effect or the level left; conditions: time 19 day
[15] = AUC (0 to 24 hrs) in liver of C57BL/6J mouse at 20 mg/kg, po measured for 24 hrs; format: ADME, organism-based
[16] = AUC (0 to 24 hrs) in plasma of C57BL/6J mouse at 20 mg/kg, po measured for 24 hrs; format: ADME, organism-based
Rattus norvegicus [17] = assay: Anti-inflammatory activity in Sprague-Dawley rat model of CFA-induced rheumatoid arthritis assessed as BV/TV value at 10 mg/kg, po administered daily measured after 19 days by micro-CT analysis (reference value: 40.047 %); format: functional; conditions: time 19 day
Mus musculus [18] = assay: Anti-inflammatory activity in BALB/c mouse model of carrageenan-induced paw edema assessed as increase in plasma 14,15-EET levels at 10 mg/kg, po measured after 6 hrs relative to control; format: functional
[19] = Clearance in Sprague-Dawley rat at 20 mg/kg, po measured for 24 hrs; format: ADME, organism-based; conditions: in vivo
Rattus norvegicus [20] = assay: Anti-inflammatory activity in Sprague-Dawley rat model of CFA-induced rheumatoid arthritis assessed as increase in ratio of plasma 11,12-EET to DHET levels at 10 mg/kg, po administered daily measured after 19 days relative to control; format: functional; conditions: time 19 day
Mus musculus [21] = assay: Anti-inflammatory activity in BALB/c mouse model of carrageenan-induced paw edema at 20 mg/kg, po measured for 0.5 to 6 hrs; format: functional, organism-based; conditions: time 0.5-6 hrs
[22] = Ratio of AUC (0 to 24 hrs) in brain to plasma in C57BL/6J mouse at 20 mg/kg, po measured for 24 hrs; format: ADME, organism-based; conditions: brain and plasma, read-out: Ratio AUC
[23] = Half life in Sprague-Dawley rat at 5 mg/kg, iv measured for 24 hrs; format: ADME, organism-based; conditions: in vivo
[24] = In vivo inhibition of pancreatic sEH in CD-1 mouse model of cerulein-induced acute pancreatitis 10 mg/kg, ip drug administered at 30 mins and 2.5 hrs post-first cerulein injection and measured after 6 hrs post-first cerulein injection; format: functional; conditions: time 3.5-5.5 hrs
Mus musculus [25] = assay: Anti-inflammatory activity in CD-1 mouse model of cerulein-induced acute pancreatitis assessed as increase in ratio of plasma 14,15-EET/DHET level at 10 mg/kg, ip drug administered at 30 mins and 2.5 hrs post-first cerulein injection and measured after 6 hrs post-first cerulein injection (reference value: 69.8 to 77.3 %); format: functional; conditions: time 3.5-5.5 hrs
Mus musculus [26] = assay: as §1, with “neutrophil infiltration” for “inflammatory response”; format: functional, organism-based; conditions: time 3.5-5.5 hrs
[27] = Ratio of Cmax in kidney to plasma in C57BL/6J mouse at 20 mg/kg, po measured for 24 hrs; format: ADME, organism-based; conditions: kidney and plasma
Rattus norvegicus [28] = assay: Anti-inflammatory activity in Sprague-Dawley rat model of CFA-induced rheumatoid arthritis assessed as […] in new blood vessel formation in synovial tissue at 10 mg/kg, po administered daily measured after 19 days by H and E staining based analysis; format: functional, organism-based; conditions: time 19.0 day
Mus musculus [29] = assay: Anti-inflammatory activity in BALB/c mouse model of carrageenan-induced paw edema assessed as increase in plasma 11,12-EET levels at 10 mg/kg, po measured after 6 hrs relative to control; format: functional
Rattus norvegicus [30] = assay: Anti-inflammatory activity in Sprague-Dawley rat model of CFA-induced rheumatoid arthritis assessed as improvement in joint tissue structure at 10 mg/kg, po administered daily measured after 19 days by H and E staining based analysis; format: functional, organism-based; conditions: time 19.0 day
Mus musculus [31] = assay: Anti-inflammatory activity in CD-1 mouse model of cerulein-induced acute pancreatitis assessed as decrease in plasma TNF-alpha level at 10 mg/kg, ip drug administered at 30 mins and 2.5 hrs post-first cerulein injection and measured after 6 hrs post-first cerulein injection; format: functional, organism-based; conditions: time 3.5-5.5 hrs
Rattus norvegicus [32] = assay: Anti-inflammatory activity in Sprague-Dawley rat model of CFA-induced rheumatoid arthritis assessed as decrease in joint deformity at 10 mg/kg, po administered daily measured after 7 days; format: functional, organism-based; conditions: time 7.0 day
[33] = AUC (0 to 24 hrs) in Sprague-Dawley rat at 20 mg/kg, po measured for 24 hrs; format: ADME, organism-based; conditions: in vivo
[34] = Tmax in Sprague-Dawley rat at 20 mg/kg, po measured for 24 hrs; format: ADME, organism-based; conditions: in vivo
Rattus norvegicus [35] = assay: Anti-inflammatory activity in Sprague-Dawley rat model of CFA-induced rheumatoid arthritis assessed as BS/BV value at 10 mg/kg, po administered daily measured after 19 days by micro-CT analysis (reference value: 17.147 %); format: functional; conditions: time 19 day

- Cmax [1]: 27.9 ng/g
- AUC(0-t) at 24 h [2]: 11 ng·h/mL
- bioavailability [7]: 8.3%
- AUC(0-t) at 24 h [15]: 27100 ng·h/mL
- AUC(0-t) at 24 h [16]: 532 ng·h/mL
- CL/F [19]: 470 mL/min/kg
- Kp at 24 h [22]: 0.02
- half-life [23]: 25.2 min
- Kp at 24 h [27]: 9.43
- AUC(0-t) at 24 h [33]: 725 ng·h/mL
- Tmax [34]: 30 min
Structure (SMILES): COc1cc(CC(=O)N2CCC(NC(=O)NCc3ccc(OC(F)(F)F)cc3)CC2)cc(OC)c1
- Activity (Rattus norvegicus [3]): 203%
- inhibition in vivo at 20 mg/kg (Mus musculus [4]): 29.5%
- inhibition in vivo at 10 mg/kg (Mus musculus [5]): 20.8%
- Activity (Mus musculus [6]): Active
- Activity (Mus musculus [8]): 355%
- Activity (Mus musculus [9]): Active
- Activity (Mus musculus [10]): Active
- inhibition in vivo at 20 mg/kg (Mus musculus [11]): 38.1%
- Activity (Rattus norvegicus [12]): Active
- Activity (Rattus norvegicus [13]): Active; Minimal Connective Tissue Proliferation Was Observed
- Activity (Rattus norvegicus [14]): 60%
- Activity (Rattus norvegicus [17]): 62.73%
- Activity (Mus musculus [18]): 128%
- Activity (Rattus norvegicus [20]): 111%
- Activity (Mus musculus [21]): Active
- inhibition in vivo at 10 mg/kg [24]: 44.7%
- Activity (Mus musculus [25]): 905%
- Activity (Mus musculus [26]): Active
- Activity (Rattus norvegicus [28]): Active; Few Newly Formed Blood Vessels Was Observed
- Activity (Mus musculus [29]): 85.4%
- Activity (Rattus norvegicus [30]): Active
- Activity (Mus musculus [31]): Active
- Activity (Rattus norvegicus [32]): Active
- Activity (Rattus norvegicus [35]): 11.923%
